Molecules are shown by their SMILES. Converted amounts (≈) assume the structure as drawn. “And” between values parts separate entries of the source, which are not always exact repeats. Equal entries are not always repeated. “Also recorded” adds a separate entry of the source. Where two headings read alike, the source gives them in different places.

One series can be described thus: Solubility. Format: physicochemical.
Another series concerns the target T1, human NCX 1.1 (Homo sapiens, UniProt P32418).
T1 construct: expressed in transfected cells
Kind of series: Fluorescence screening assay for hNCX 1.1 inhibition (reverse mode, Sf9 cells). Particulars: for IC50: Sf9 cells expressing human NCX1.1, reverse mode, fluorescence, n=3 assays. Format: cell-based. How it is done: Spodoptera frugiperda (Sf9; RRID:CVCL_0549) cells are widely used for the transient and stable expression of recombinant proteins. Here, Sf9 cells were stably transfected with human NCX 1.1 and maintained in spinner flasks with insect cell culture medium (TNM‐FH), supplemented with 10% FBS, antibiotic–antimycotic solution, and 50 μg·ml^−1 of blasticidin at 28°C in a non‐humidified, CO2‐free atmosphere. The Sf9 cell suspension was subcultured three times a week.
NCX reverse mode activity was stimulated via a 50% dilution of the extracellular Na^+ level using the internal pipettor of FLEXstation, a fluorescence imaging plate reader (Molecular Devices, USA), while simultaneously monitoring intracellular calcium levels. After dilution, the concentration of other ions remained the same, but Na^+ concentration was diluted to the half of original concentration of 172 to 86 mM. For Sf9 insect cells, normal extracellular Na^+ ion concentration is 172 mM. Typically, 50 μl of a solution containing 150,000–200,000 Sf9–NCX cells was loaded onto each well of a 96‐well plate. Cells were preincubated with the intracellular calcium dye Fluo‐4 and Fluo‐6, and the concentrations of the test compound (three replicates) were determined for about 1 h at room temperature before experimentation. The extracellular solution contained (in mM) 172 NaCl, 10 HEPES, 1 CaCl2, 1.2 MgCl2, 0.33 NaH2PO4, 5 glucose, and 5 probenecid. The pH was adjusted to 7.4 with NaOH. The extracellular Na^+ was diluted by the addition of a Na^+‐free extracellular solution (containing in mM: 147 N‐methyl‐D‐glucamine (NMDG), 10 HEPES, 1 CaCl2, 1.2 MgCl2, 0.33 NaH2PO4, and 5 glucose with the pH adjusted by HCl to 7.4)‐induced robust and reproducible elevation of intracellular calcium. The osmolarity of both solutions was adjusted to 340–355 mOsm in order to match the Sf9 cell media osmolarity. In each plate, the IC50 determination for each test compound was based on relative fluorescence changes in comparison with control and 5‐mM nickel acetate‐induced NCX inhibition.

Series [1] has as its system guinea pig papillary muscle. As to the kind of experiment: In vitro contraction dynamics in guinea pig papillary muscle. Particulars: 1 Hz, 37°C. The text has this: Guinea pigs (both sex, body weight ranging 342–565 g, Dunkin Hartley, M&B A/S, Ry, Denmark) were used in the study. The animals were housed in solid bottom polycarbonate cages (Makrolon® IV, 385 × 590 × 200 mm) with stainless steel wire mesh lids, up to three animals of same sex per cage. Autoclaved aspen chips (Tapvei Ky, Kaavi, Finland) were used as bedding. A commercially available rodent SDS FD1 (P) SQC pellet diet (Special Diet Services Ltd, Witham, England) and tap water from the public supply (Espoon vesilaitos, Espoo, Finland) were available ad libitum in polycarbonate bottles (800–1,000 ml) with plastic caps (Scanbur A/S, Ejby, Denmark).
Guinea pigs were killed by a blow on the skull and the heart will be excised. Right ventricular papillary muscle was dissected and rinsed in ice‐cold Tyrode's solution. […]
The signal was acquired with a validated acquisition system ACFO v1.0 (Fision Oy, Finland). The following parameters were measured: twitch tension (Tw), rest tension (RT), time to peak tension (TTP), and half relaxation time (HRT). […]
The baseline twitch tensions were measured after a stabilization period of 20–40 min. Thereafter, vehicle (1.1% DMSO) or ORM‐11372 in Tyrode's solution was superfused into the cuvette for 15 min, and the effects were measured from the steady‐state level. […]

For the molecule `Nc1cccc(-c2ccc(CNc3ccc(F)cc3)o2)c1` [ORM‐11372], the solubility in “Solubility” (5% glucose solution, saline or isotonic, 5% glucose used for in vivo dosing, read-out: Solubility in 5% glucose solution) was 5400 µg/mL (≈ 19.1 mM); in the series “Solubility” (phosphate buffer, pH 7.4, aqueous buffer, pH 7.4 phosphate buffer, read-out: Solubility), 10 to 100 µg/mL (≈ 0.0354 to 0.354 mM); in the series “Solubility” (phosphate buffer, pH 7.4, aqueous buffer, pH 7.4 phosphate buffer, read-out: Solubility class) it was 10 to 100 µg/mL (≈ 0.0354 to 0.354 mM); in “Solubility” (saline, saline or isotonic, saline used for in vivo dosing, read-out: Solubility in saline), 5300 µg/mL (≈ 18.8 mM). Also, on human NCX 1.1, the “potency as NCX inhibitor relative to SEA0400” value is on record as “more than 10 times”. For the same molecule, the half-maximal inhibitory concentration (IC50) at human NCX 1.1 was 6.2 nM and 6 nM. The half relaxation time result in series [1] is reported as “unchanged; also recorded: did not affect”. Further, in series [1] (compared with vehicle), the twitch tension entry is recorded as “increased”.

On to `O=C(CN1CCC(O)CC1)Nc1ccc(Oc2ccc3c(c2)CCC(c2ccccc2)O3)nc1` (centres unmarked) [ORM-10962], for which the Solubility class result in the series “Solubility” (pH 7.4 phosphate buffer) is recorded as “Moderate (moderate solubility between 10-100 µg/ml)”. The same molecule had an IC50 at human NCX 1.1 of 197 nM.

For `CCOc1ccc(Oc2ccc(OCc3cc(F)ccc3F)cc2)c(N)c1` [SEA0400, reference compound], the Solubility class result was “insoluble” in the series “Solubility” (pH 7.4 phosphate buffer) and “Insoluble (insoluble less than 10 µg/ml)” in “Solubility” (pH 7.4 phosphate buffer, listed as SEA 0400). For the same molecule, the solubility result in “Solubility” (pH 7.4 phosphate buffer) is on record as “less than 10 μg·ml^−1”. On human NCX 1.1, this molecule registered an IC50 of 376 nM.

One may read the solubility as how much of the substance goes into solution per volume. Broadly, the IC50 is the concentration that gives 50% inhibition.
